From patent US6313132A, “Therapeutically active diarylpropylamines; their pharmaceutically acceptable salts; a method for their preparation and method for their use” (Pharmacia AB, priority 1999, dated 2001)
Where a name gives a salt, the structure may show the parent alone.

The molecules below were run against T1, muscarinic receptor (Cavia porcellus, UniProt H0W1Z3) (assay: Functional in vitro studies: antagonism of carbachol-induced contraction of urinary bladder smooth muscle strips). Conditions: not given.
T1 construct: Smooth muscle strips of the urinary bladder were dissected in a Krebs-Henseleit solution; from tissue; host or cells: guinea pig urinary bladder smooth muscle strips
T1 sequence (H0W1Z3 1-590): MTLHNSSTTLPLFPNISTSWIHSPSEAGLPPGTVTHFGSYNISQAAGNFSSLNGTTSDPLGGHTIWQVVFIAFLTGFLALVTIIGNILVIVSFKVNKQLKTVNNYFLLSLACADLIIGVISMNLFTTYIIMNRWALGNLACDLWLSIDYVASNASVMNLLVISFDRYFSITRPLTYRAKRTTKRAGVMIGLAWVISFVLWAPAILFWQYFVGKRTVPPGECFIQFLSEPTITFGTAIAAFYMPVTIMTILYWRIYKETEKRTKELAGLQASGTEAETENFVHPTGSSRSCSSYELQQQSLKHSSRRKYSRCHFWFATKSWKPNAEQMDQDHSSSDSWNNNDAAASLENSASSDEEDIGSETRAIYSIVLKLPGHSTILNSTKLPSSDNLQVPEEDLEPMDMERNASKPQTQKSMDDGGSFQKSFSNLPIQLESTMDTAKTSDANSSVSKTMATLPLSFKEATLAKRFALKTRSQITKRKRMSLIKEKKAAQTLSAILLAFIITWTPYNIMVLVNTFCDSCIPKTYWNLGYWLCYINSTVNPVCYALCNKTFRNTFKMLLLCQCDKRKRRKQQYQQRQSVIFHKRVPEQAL
Assay type: cell-based, guinea pig

SMILES	Kb
CC(C)N(CCC(c1ccccc1)c1cnc[nH]1)C(C)C (stereo not drawn) [Example 36, N,N-Diisopropyl-3-(imidazol-4(5)-yl)-3-phenylpropanamine dihydrochloride]	2640 nM

Same assay, conditions: male guinea pig urinary bladder strips; carbachol agonist; 60 min incubation with antagonist; Krebs-Henseleit pH 7.4, 37° C.; KB from dose ratios (Schild); 60 min; read-out: KB-value

Kb	SMILES
32 nM	CC(C)N(CC[C@H](c1ccccc1)c1cc(C(O)CO)ccc1O)C(C)C (single isomer, unassigned; (-)) [Example 16, (-)-N,N-Diisopropyl-3(R)-[5-(1(S*),2-dihydroxyethyl) 2-hydroxyphenyl]-3-phenylpropanamine fumarate]

Same assay, conditions: male guinea pig urinary bladder strips; carbachol agonist; 60 min incubation with antagonist; Krebs-Henseleit pH 7.4, 37° C.; KB from dose ratios (Schild); read-out: KB-value

Kb	SMILES
431 nM	CC(C)N(CC[C@@H](c1ccccc1)c1cc(CCO)ccc1O)C(C)C [Example 11, (S)-N,N-Diisopropyl-3-[2-hydroxy-5-(2-hydroxyethyl)phenyl]-3-phenylpropanamine hydrochloride]
3320 nM	CC(C)NCCC(c1ccccc1)c1cc(C(=O)O)ccc1O (stereo not drawn) [Example 20, N-Isopropyl-3-(5-carboxy-2-hydroxyphenyl)-3-phenylpropanamine hydrochloride]
286 nM	CC(C)N(CCC(c1cccs1)c1ccc(O)cc1O)C(C)C (stereo not drawn) [Example 42, N,N-Diisopropyl-3-(2,4-dihydroxyphenyl)-3-(2-thienyl)propanamine]
3.5 nM	CC(C)N(CC[C@H](c1ccccc1)c1cc(CCCCCCO)ccc1O)C(C)C [Example 17, (R)-[N,N-Diisopropyl-3-[2-hydroxy-5-(6-hydroxyhexyl)phenyl]-3-phenylpropanamine hydrochloride]
29 nM	COc1ccccc1C(CCN(C(C)C)C(C)C)c1cccs1 (stereo not drawn) [Example 43, N,N-Diisopropylamine-3-(2-methoxyphenyl)-3-(2-thienyl)propanamine, fumarate]
520 nM	CC(C)N(CCC(c1ccccc1)c1ncco1)C(C)C (stereo not drawn) [Example 37, N,N-Diisopropyl-3-(oxazol-2-yl)-3-phenylpropanamine hydrochloride]
7.6 nM	CC(C)N(CCC(c1cccs1)c1ccccc1O)C(C)C (stereo not drawn) [Example 41, N,N-Diisopropyl-3-(2-hydroxyphenyl)-3-(2-thienyl)-propanamine fumarate]
2.9 nM	CCOCc1ccc(O)c([C@H](CCN(C(C)C)C(C)C)c2ccccc2)c1 [Example 19, (R)-N,N-Diisopropyl-3-(5-ethoxymethyl-2-hydroxyphenyl)-3-phenylpropanamine]
8.55 nM	CC(C)N(CC[C@H](c1ccccc1)c1cc(N=[N+]=[N-])ccc1O)C(C)C [Example 28, (R)-N,N-Diisopropyl-3-(5-azido-2-hydroxyphenyl)-3-phenylpropanamine hydrochloride]
350 nM	c1ccc(C(CCN2CCCC2)c2cccs2)cc1 (stereo not drawn) [Example 52, N-[3-Phenyl-3-(2-thienyl)propyl]pyrrolidine fumarate]
814 nM	CC(C)N(CCC(c1ccccc1)c1cncs1)C(C)C (stereo not drawn) [Example 40, N,N-Diisopropyl-3-(thiazol-5-yl)-3-phenylpropanamine hydrochloride]
154 nM	c1ccc(C(CCN2CCCCC2)c2cccs2)cc1 (stereo not drawn) [Example 53, N-[3-Phenyl-3-(2-thienyl)propyl]piperidine hydrochloride]
4.5 nM	CC(O)c1ccc(O)c([C@H](CCN(C(C)C)C(C)C)c2ccccc2)c1 (stereo partly drawn) [Example 14, N,N-Diisopropyl-3(R)-[2-hydroxy-5-(1-hydroxyethyl)phenyl]-3-phenylpropanamine fumarate]
336 nM	CC(C)N(CCC(c1cccnc1)c1ccccc1O)C(C)C (stereo not drawn) [Example 5, N,N-Diisopropyl-3-(2-hydroxyphenyl)-3-(3-pyridyl)-propanamine dihydrochloride]
2290 nM	COc1ccc(C(CCN(C(C)C)C(C)C)c2cccs2)c(OC)c1 (stereo not drawn) [Example 44, N,N-Diisopropyl-3-(2,4-dimethoxyphenyl)-3-(2-thienyl)propanamine fumarate]
707 nM	Cn1cccc1C(CCN1CCCC1)c1ccccc1 (stereo not drawn) [Example 60, 3-(N-Methylpyrrol-2-yl)-3-phenyl-1-pyrrolidinopropane fumarate]
14 nM	CN(CCC(c1ccccc1)c1ccccc1O)C1CCC1 (stereo not drawn) [Example 31, N-Cyclobutyl-N-methyl-3-(2-hydroxyphenyl)-3-phenylpropanamine hydrochloride]
154 nM	CCN(CC)CCC(c1ccccc1)c1cccs1 (stereo not drawn) [Example 50, fumarate]
236 nM	Cc1ccc(O)c(C(CCN(C)C2CCCCC2)c2ccccc2)c1 (stereo not drawn) [Example 3, N-Cyclohexyl-N-methyl-3-(2-hydroxy-5-methylphenyl)-3-phenylpropanamine hydrochloride]
1.05 nM	CC(=O)NCCCc1ccc(O)c([C@H](CCN(C(C)C)C(C)C)c2ccccc2)c1 [Example 23, (R)-N,N-Diisopropyl-3-[5-3-(acetamidopropyl)-2-hydroxyphenyl]-3-phenylpropanamine hydrochloride]
2 nM	Cc1ccc(O)c(C(CCN(C(C)C)C(C)C)c2cccs2)c1 (single isomer, unassigned) [Example 55, (R*) N,N-Diisopropyl-3-(2-hydroxy-5-methylphenyl)-3-(2-thienyl)propanamine]
171 nM	CC(C)N(CCC(c1ccccc1)c1ccccc1CO)C(C)C (stereo not drawn) [Example 10, N,N-Diisopropyl-3-(2-hydroxymethyl)phenyl-3-phenylpropanamine hydrochloride]

Kb	SMILES
1.91 nM	CC(C)N(CC[C@H](c1ccccc1)c1cc(CCC#N)ccc1O)C(C)C [Example 24, (R)-N,N-Diisopropyl-3-[5-(2-cyanoethyl)-2-hydroxyphenyl]-3-phenylpropanamine hydrochloride]
235 nM	Cc1csc(C(CCN(C(C)C)C(C)C)c2ccccc2)n1 (stereo not drawn) [Example 39, N,N-Diisopropyl-3-(4-methylthiazol-2-yl)-3-phenyl-propanamine hydrochloride]
91 nM	COc1ccccc1C(CCN(C)C(C)C)c1cccs1 (stereo not drawn) [Example 47, N-Isopropyl-N-methyl-3-(2-methoxyphenyl)-3-(2-thienyl)propanamine fumarate]
13 nM	CC(C)N(CC[C@H](c1ccccc1)c1cc(C=O)ccc1O)C(C)C [Example 7, (R)-N,N-Diisopropyl-3-(5-formyl-2-hydroxyphenyl)-3-phenylpropanamine hydrochloride]
51 nM	COc1cccc(C(CCN(C(C)C)C(C)C)c2cccs2)c1 (stereo not drawn) [Example 45, N,N-Diisopropyl-3-(3-methoxyphenyl)-3-(2-thienyl)propanamine hydrochloride]
207 nM	CC(C)N(CCC(c1ccccc1)c1nccs1)C(C)C (stereo not drawn) [Example 38, N,N-Diisopropyl-3-phenyl-3-(thiazol-2-yl)propanamine hydrochloride]
2.8 nM	CC(C)N(CC[C@H](c1ccccc1)c1cc(CCCN)ccc1O)C(C)C [Example 22, (R)-N,N-Diisopropyl-3-[5-(3-aminopropyl)-2-hydroxyphenyl]-3-phenylpropanamine dihydrochloride]
36 nM	CN(CCC(c1ccccc1)c1ccccc1O)C1CCCC1 (stereo not drawn) [Example 32, N-Cyclopentyl-N-methyl-3-(2-hydroxyphenyl)-3-phenylpropanamine hydrochloride]
499 nM	Cc1ccc(O)c(C(CCN(CCOCCO)C(C)C)c2ccccc2)c1 (stereo not drawn) [Example 1, N-(5-Hydroxy-3-oxapentyl)-N-isopropyl-3-(2-hydroxy-5-methylphenyl)-3-phenylpropanamine hydrochloride]
172 nM	CC(C)N(CCc1ccc(O)c([C@H](CCN(C(C)C)C(C)C)c2ccccc2)c1)C(C)C [Example 18, (R)-N,N-Diisopropyl-3-[5-(2-diisopropylaminoethyl)-2-hydroxyphenyl]-3-phenylpropanamine hydrochloride]
1770 nM	CC(C)N(CCC(c1ccccc1)c1cnco1)C(C)C (stereo not drawn) [Example 35, N,N-Diisopropyl-3-(oxazol-5-yl)-3-phenylpropanamine hydrochloride]
590 nM	CN(CCC(c1ccccc1)c1cccs1)C1CCCCC1 (stereo not drawn) [Example 49, N-Cyclohexyl-N-methyl-3-phenyl-3-(2-thienyl)propanamine hydrochloride]
56 nM	CC(C)N(CCC(c1ccccc1)c1ccccc1N)C(C)C (stereo not drawn) [Example 33, N,N-Diisopropyl-3-(2-aminophenyl)-3-phenylpropanamine hydrochloride]
31 nM	CC(C)N(CCC(c1ccccc1)c1cccs1)C(C)C (stereo not drawn) [Example 48, N,N-Diisopropyl-3-phenyl-3-(2-thienyl)propanamine, hydrochloride]
139 nM	CCNCc1ccc(O)c([C@H](CCN(C(C)C)C(C)C)c2ccccc2)c1 [Example 30, N,N-Diisopropyl-3-(5-ethylaminomethyl-2-hydroxyphenyl)-3-phenylpropanamine]
360 nM	Cc1ccc(O)c(C(CCN(C(C)C)C(C)C)c2cccs2)c1 (single isomer, unassigned) [Example 56, (S*) N,N-Diisopropyl-3-(2-hydroxy-5-methylphenyl)-3-(2-thienyl)propanamine]
3.8 nM	COC(=O)c1ccc(O)c([C@H](CCN(C(C)C)C(C)C)c2ccccc2)c1 [Example 9, (R)-N,N-Diisopropyl-3-(2-hydroxy-5-methyloxycarbonyl-phenyl)-3-phenylpropanamine hydrochloride]
10 nM	CC(C)N(CCC(c1ccccc1)c1ccccc1F)C(C)C (stereo not drawn) [Example 6, N,N-Diisopropyl-3-(2-fluorophenyl)-3-phenylpropanamine hydrochloride]
118 nM	CC(C)N(C)CCC(c1ccccc1)c1cccs1 (stereo not drawn) [Example 51, N-Isopropyl-N-methyl-3-phenyl-3-(2-thienyl)propanamine hydrochloride]
132 nM	CC(C)N(CCC(c1ccccc1)c1ccccc1C(F)(F)F)C(C)C (stereo not drawn) [Example 4, N,N-Diisopropyl-3-(2-trifluoromethylphenyl)-3-phenylpropanamine hydrochloride]
286 nM	COc1ccc(C(CCN(C(C)C)C(C)C)c2cccs2)cc1 (stereo not drawn) [Example 46, N,N-Diisopropyl-3-(4-methoxyphenyl)-3-(2-thienyl)propanamine hydrochloride]
